Data from BindingDB's records for patent US9694016 (Novartis AG, 2017).
pIC50: −log10 of the molar value.

The compounds below were run against RAF proto-oncogene serine/threonine-protein kinase [Y340E,Y341E] (Human, UniProt P04049, Y340E/Y341E) (assay: Raf Activity Assay). Conditions: pH 7.5; 25 °C.
Sequence of RAF proto-oncogene serine/threonine-protein kinase [Y340E,Y341E] (P04049 whole entry Y340E/Y341E): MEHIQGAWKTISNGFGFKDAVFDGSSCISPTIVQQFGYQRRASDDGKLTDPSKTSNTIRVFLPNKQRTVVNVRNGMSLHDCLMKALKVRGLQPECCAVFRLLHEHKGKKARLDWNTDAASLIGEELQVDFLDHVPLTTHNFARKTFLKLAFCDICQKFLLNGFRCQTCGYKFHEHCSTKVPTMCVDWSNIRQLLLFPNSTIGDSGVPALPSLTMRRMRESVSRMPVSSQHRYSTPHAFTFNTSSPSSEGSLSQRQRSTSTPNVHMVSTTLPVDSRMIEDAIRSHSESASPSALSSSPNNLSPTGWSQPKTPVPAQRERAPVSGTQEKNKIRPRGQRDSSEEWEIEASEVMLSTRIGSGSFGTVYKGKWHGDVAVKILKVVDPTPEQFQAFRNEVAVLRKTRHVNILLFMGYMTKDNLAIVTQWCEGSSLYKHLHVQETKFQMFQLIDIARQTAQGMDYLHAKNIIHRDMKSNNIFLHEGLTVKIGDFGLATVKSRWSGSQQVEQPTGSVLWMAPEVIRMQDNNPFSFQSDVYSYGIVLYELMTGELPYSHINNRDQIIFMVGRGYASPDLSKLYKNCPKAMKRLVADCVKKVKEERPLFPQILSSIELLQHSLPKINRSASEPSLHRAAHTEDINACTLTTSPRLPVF
Method: The plate was incubated for 60 minutes at room temperature. The Raf kinase activity reaction was started by the addition of 5 mL per well of 2xATP diluted in assay buffer. […] The additions were carried out under dark conditions to protect the detection beads from light. A lid was placed on top of the plate and incubated for 1 hour at room temperature, then the luminescence was read on a PerkinElmer Envision instrument.

Compound | pIC50
Cn1cc(-c2cc(NC(=O)c3ccnc(C(C)(F)F)c3)ccc2C#N)cc(N2CCOCC2)c1=O [US9694016, 416] | 6.70
CCOc1nnc(-c2cc(NC(=O)c3cccc(C(F)F)c3)cnc2C)cc1N1CCOCC1 [US9694016, 619] | 9.30
Cc1ncc(NC(=O)c2ccnc(C(C)(F)F)c2)cc1-c1cc(N2CCOC[C@@H]2C)n(C)c(=O)c1 [US9694016, 526] | 8.03
CCOc1nnc(-c2cc(NC(=O)c3ccnc(C(F)(F)F)c3)ccc2C)cc1N1CCOCC1 [US9694016, 566] | 9.70
Cc1ncc(NC(=O)c2ccnc(C(C)(C)C#N)c2)cc1-c1cnc(OC(F)F)c(N2CCOCC2)c1 [US9694016, 225] | 8.41
Cc1ncc(NC(=O)c2ccnc(C(C)(F)F)c2)cc1-c1cnc(C#N)c(N2CCOCC2)c1 [US9694016, 250] | 9.10
CCOc1nc(-c2cc(NC(=O)c3ccnc(C(C)C)c3)ccc2C)cc(N2CCOCC2)n1 [US9694016, 763] | 9.70
Cc1ccc(NC(=O)c2ccnc(C(C)(C)C#N)c2)cc1-c1cc(N2CCOCC2)nc(OC2CNC2)n1 [US9694016, 777] | 10.10
CNC(=O)C1CN(c2cc(-c3cc(NC(=O)c4cccc(C(F)(F)F)c4)cnc3C)nn3ccnc23)CCO1 (stereo unspecified) [US9694016, 874] | 8.47
Cc1ncc(NC(=O)c2cnnc(C(C)(C)C#N)c2)cc1-c1cc(N2CCOCC2)c(OC2CCOCC2)nn1 [US9694016, 635] | 8.18
Cc1ncc(NC(=O)c2cc(CN(C)C)cc(C(F)(F)F)c2)cc1-c1cc(N2CCOCC2)c(=O)n(C)c1 [US9694016, 401] | 7.92
CCNc1nc(-c2cc(NC(=O)c3cccc(S(C)(=O)=O)c3)ccc2C)cc(N2CCOCC2)n1 [US9694016, 704] | 10.10
COc1nnc(-c2cc(NC(=O)c3ccnc(C(C)(C)F)c3)cnc2C)cc1N1CCOCC1 [US9694016, 608] | 8.70
CCNc1nc(-c2cc(NC(=O)c3ccnc(C(C)(F)F)c3)cnc2C)cc(N2CCOCC2)n1 [US9694016, 725] | 8.92
Cc1ncc(NC(=O)c2ccnc(C3(C#N)CC3)c2)cc1-c1cnc(OC2CCOCC2)c(N2CCOCC2)c1 [US9694016, 940] | 8.88
Cc1ccc(NC(=O)c2ccnc(C3CC3)c2)cc1-c1cc(N2CCOCC2)c(=O)n(C)n1 [US9694016, 656] | 9.52
